Literature values, collected in EP0306335A1, “Analysis of ions present at low concentrations in solutions containing other ions” (Bradshaw, Jerald S., priority 1987, dated 1989).

Settings: ligand as solute in solution

log of the equilibrium constant (log K) for interaction with Sr²⁺: 8.73
SMILES: O=C(O)CN(CCN(CC(=O)O)CC(=O)O)CC(=O)O [EDTA, ethylenediaminetetraacetic acid]
